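Briefly, cells in 96-well plates were exposed to five compound concentrations for 48 h, and endpoints were estimated by linear interpolation. The concentration for full growth arrest is given as TGI.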
Tests used:
Test in all cases: NCI anticancer screen, dose series, 48 h
T-47D breast = test system: T-47D breast
SW-620 colon = test system: SW-620 colon
MOLT-4 leukemia = test system: MOLT-4 leukemia
PC-3 prostate = test system: PC-3 prostate
U251 CNS = test system: U251 CNS
A498 renal = test system: A498 renal
UACC-62 melanoma = test system: UACC-62 melanoma
SNB-75 CNS = test system: SNB-75 CNS
SK-MEL-28 melanoma = test system: SK-MEL-28 melanoma
UACC-257 melanoma = test system: UACC-257 melanoma
K-562 leukemia = test system: K-562 leukemia
SF-268 CNS = test system: SF-268 CNS
RPMI-8226 leukemia = test system: RPMI-8226 leukemia
DU-145 prostate = test system: DU-145 prostate
UO-31 renal = test system: UO-31 renal
NCI/ADR-RES ovarian = test system: NCI/ADR-RES ovarian
OVCAR-3 ovarian = test system: OVCAR-3 ovarian
HCT-15 colon = test system: HCT-15 colon
NCI-H460 lung = test system: NCI-H460 lung
HOP-62 NSCLC = test system: HOP-62 NSCLC
HCT-116 colon = test system: HCT-116 colon
NCI-H23 lung = test system: NCI-H23 lung
SN12C renal = test system: SN12C renal
SK-MEL-5 melanoma = test system: SK-MEL-5 melanoma
A549 NSCLC = test system: A549 NSCLC
EKVX NSCLC = test system: EKVX NSCLC
OVCAR-4 ovarian = test system: OVCAR-4 ovarian
SF-295 CNS = test system: SF-295 CNS
ACHN renal = test system: ACHN renal
HCC-2998 colon = test system: HCC-2998 colon
SR leukemia = test system: SR leukemia
OVCAR-5 ovarian = test system: OVCAR-5 ovarian
MDA-N = test system: MDA-N
COLO 205 colon = test system: COLO 205 colon
CCRF-CEM leukemia = test system: CCRF-CEM leukemia
NCI-H226 lung = test system: NCI-H226 lung
LOX IMVI melanoma = test system: LOX IMVI melanoma
OVCAR-8 ovarian = test system: OVCAR-8 ovarian
HS 578T breast = test system: HS 578T breast
HL-60(TB) leukemia = test system: HL-60(TB) leukemia
HOP-92 NSCLC = test system: HOP-92 NSCLC
IGROV1 ovarian = test system: IGROV1 ovarian
CAKI-1 renal = test system: CAKI-1 renal
SF-539 CNS = test system: SF-539 CNS
TK-10 renal = test system: TK-10 renal
MCF7 breast = test system: MCF7 breast
BT-549 breast = test system: BT-549 breast
NCI-H522 lung = test system: NCI-H522 lung
SK-OV-3 ovarian = test system: SK-OV-3 ovarian
MDA-MB-435 = test system: MDA-MB-435
MALME-3M melanoma = test system: MALME-3M melanoma
MDA-MB-231 breast = test system: MDA-MB-231 breast
HT29 colon = test system: HT29 colon
KM12 colon = test system: KM12 colon
786-0 renal = test system: 786-0 renal
SNB-19 CNS = test system: SNB-19 CNS
RXF 393 renal = test system: RXF 393 renal
M14 melanoma = test system: M14 melanoma
SK-MEL-2 melanoma = test system: SK-MEL-2 melanoma

Cc1ccc(C2=Nn3c(nc4sc(-c5ccccc5)cc4c3=O)SC2)cc1
TGI (T-47D breast): > 100 µM | TGI (SW-620 colon): > 100 µM | TGI (MOLT-4 leukemia): > 100 µM | TGI (PC-3 prostate): > 100 µM | TGI (U251 CNS): > 100 µM | TGI (A498 renal): > 100 µM | TGI (UACC-62 melanoma): > 100 µM | TGI (SNB-75 CNS): > 100 µM | TGI (SK-MEL-28 melanoma): > 100 µM | TGI (UACC-257 melanoma): > 100 µM | TGI (K-562 leukemia): > 100 µM | TGI (SF-268 CNS): > 100 µM | TGI (RPMI-8226 leukemia): > 100 µM | TGI (DU-145 prostate): > 100 µM | TGI (UO-31 renal): > 100 µM | TGI (NCI/ADR-RES ovarian): > 100 µM | TGI (OVCAR-3 ovarian): > 100 µM | TGI (HCT-15 colon): > 100 µM | TGI (NCI-H460 lung): > 100 µM | TGI (HOP-62 NSCLC): > 100 µM | TGI (HCT-116 colon): > 100 µM | TGI (NCI-H23 lung): > 100 µM | TGI (SN12C renal): > 100 µM | TGI (SK-MEL-5 melanoma): > 100 µM | TGI (A549 NSCLC): > 100 µM | TGI (EKVX NSCLC): > 100 µM | TGI (OVCAR-4 ovarian): > 100 µM | TGI (SF-295 CNS): > 100 µM | TGI (ACHN renal): > 100 µM | TGI (HCC-2998 colon): > 100 µM | TGI (SR leukemia): > 100 µM | TGI (OVCAR-5 ovarian): > 100 µM | TGI (MDA-N): > 100 µM | TGI (COLO 205 colon): > 100 µM | TGI (CCRF-CEM leukemia): > 100 µM | TGI (NCI-H226 lung): > 100 µM | TGI (LOX IMVI melanoma): > 100 µM | TGI (OVCAR-8 ovarian): > 100 µM | TGI (HS 578T breast): > 100 µM | TGI (HL-60(TB) leukemia): > 100 µM | TGI (HOP-92 NSCLC): > 100 µM | TGI (IGROV1 ovarian): > 100 µM | TGI (CAKI-1 renal): > 100 µM | TGI (SF-539 CNS): > 100 µM | TGI (TK-10 renal): > 100 µM | TGI (MCF7 breast): > 100 µM | TGI (BT-549 breast): > 100 µM | TGI (NCI-H522 lung): > 100 µM | TGI (SK-OV-3 ovarian): > 100 µM | TGI (MDA-MB-435): > 100 µM | TGI (MALME-3M melanoma): > 100 µM | TGI (MDA-MB-231 breast): > 100 µM | TGI (HT29 colon): > 100 µM | TGI (KM12 colon): > 100 µM | TGI (786-0 renal): > 100 µM

O=C1N2CCc3c([nH]c4ccccc34)C23CC2CCCC12S3 (stereo not drawn)
TGI (T-47D breast): > 50 µM | TGI (SW-620 colon): > 50 µM | TGI (MOLT-4 leukemia): > 50 µM | TGI (PC-3 prostate): > 50 µM | TGI (U251 CNS): > 50 µM | TGI (A498 renal): > 50 µM | TGI (SNB-19 CNS): > 50 µM | TGI (UACC-62 melanoma): > 50 µM | TGI (SK-MEL-28 melanoma): > 50 µM | TGI (UACC-257 melanoma): 47.5 µM | TGI (K-562 leukemia): > 50 µM | TGI (SF-268 CNS): > 50 µM | TGI (RPMI-8226 leukemia): > 50 µM | TGI (DU-145 prostate): > 50 µM | TGI (UO-31 renal): > 50 µM | TGI (NCI/ADR-RES ovarian): 43.9 µM | TGI (RXF 393 renal): > 50 µM | TGI (OVCAR-3 ovarian): > 50 µM | TGI (HCT-15 colon): > 50 µM | TGI (HOP-62 NSCLC): > 50 µM | TGI (HCT-116 colon): > 50 µM | TGI (NCI-H23 lung): > 50 µM | TGI (SN12C renal): > 50 µM | TGI (SK-MEL-5 melanoma): > 50 µM | TGI (A549 NSCLC): > 50 µM | TGI (EKVX NSCLC): > 50 µM | TGI (M14 melanoma): > 50 µM | TGI (OVCAR-4 ovarian): > 50 µM | TGI (SF-295 CNS): > 50 µM | TGI (ACHN renal): > 50 µM | TGI (SR leukemia): > 50 µM | TGI (OVCAR-5 ovarian): > 50 µM | TGI (MDA-N): > 50 µM | TGI (COLO 205 colon): > 50 µM | TGI (NCI-H226 lung): > 50 µM | TGI (LOX IMVI melanoma): > 50 µM | TGI (OVCAR-8 ovarian): > 50 µM | TGI (HS 578T breast): > 50 µM | TGI (HL-60(TB) leukemia): > 50 µM | TGI (HOP-92 NSCLC): > 50 µM | TGI (IGROV1 ovarian): > 50 µM | TGI (CAKI-1 renal): > 50 µM | TGI (SF-539 CNS): > 50 µM | TGI (TK-10 renal): > 50 µM | TGI (MCF7 breast): > 50 µM | TGI (BT-549 breast): > 50 µM | TGI (SK-MEL-2 melanoma): > 50 µM | TGI (NCI-H522 lung): > 50 µM | TGI (SK-OV-3 ovarian): > 50 µM | TGI (MDA-MB-435): > 50 µM | TGI (MALME-3M melanoma): > 50 µM | TGI (MDA-MB-231 breast): > 50 µM | TGI (HT29 colon): > 50 µM | TGI (KM12 colon): > 50 µM | TGI (786-0 renal): > 50 µM

c1ccc(C/C(=N\Nc2nc3ccccc3o2)c2ccccn2)cc1
TGI (T-47D breast): > 33.5 µM | TGI (SW-620 colon): 4.79 µM | TGI (PC-3 prostate): 5.68 µM | TGI (U251 CNS): 5.32 µM | TGI (A498 renal): 1.69 µM | TGI (SNB-19 CNS): 20.5 µM | TGI (UACC-62 melanoma): 2.49 µM | TGI (UACC-257 melanoma): 3.85 µM | TGI (K-562 leukemia): 3.66 µM | TGI (SF-268 CNS): 0.921 µM | TGI (RPMI-8226 leukemia): 0.957 µM | TGI (DU-145 prostate): 8.38 µM | TGI (UO-31 renal): 4.55 µM | TGI (NCI/ADR-RES ovarian): 0.0824 µM | TGI (RXF 393 renal): 1.92 µM | TGI (OVCAR-3 ovarian): 0.0301 µM | TGI (HCT-15 colon): 4.64 µM | TGI (NCI-H460 lung): 2.27 µM | TGI (HOP-62 NSCLC): 1.55 µM | TGI (HCT-116 colon): 3.68 µM | TGI (NCI-H23 lung): > 36.4 µM | TGI (SN12C renal): 3.67 µM | TGI (SK-MEL-5 melanoma): 0.368 µM | TGI (A549 NSCLC): > 34.6 µM | TGI (EKVX NSCLC): < 0.0267 µM | TGI (M14 melanoma): 0.992 µM | TGI (SF-295 CNS): 3.25 µM | TGI (ACHN renal): 3.31 µM | TGI (SR leukemia): 2.05 µM | TGI (MDA-N): 5.13 µM | TGI (COLO 205 colon): 0.0114 µM | TGI (CCRF-CEM leukemia): 0.0473 µM | TGI (NCI-H226 lung): 0.363 µM | TGI (LOX IMVI melanoma): 2.27 µM | TGI (OVCAR-8 ovarian): 1.42 µM | TGI (HS 578T breast): 29 µM | TGI (HL-60(TB) leukemia): 1.68 µM | TGI (HOP-92 NSCLC): 0.268 µM | TGI (IGROV1 ovarian): 0.609 µM | TGI (CAKI-1 renal): 0.654 µM | TGI (SF-539 CNS): 1.21 µM | TGI (TK-10 renal): 1.81 µM | TGI (MCF7 breast): 0.0215 µM | TGI (BT-549 breast): 5.73 µM | TGI (SK-MEL-2 melanoma): 20.7 µM | TGI (NCI-H522 lung): 18.9 µM | TGI (SK-OV-3 ovarian): 0.0726 µM | TGI (MDA-MB-435): 12.7 µM | TGI (MALME-3M melanoma): 1.82 µM | TGI (MDA-MB-231 breast): 16.7 µM | TGI (HT29 colon): 4.56 µM | TGI (KM12 colon): 6.67 µM | TGI (786-0 renal): 0.136 µM
